System: Collagen type IV
Assay: Collagen type IV ELISA of blood (plasma) from cancer patients, clinical study CA182-002
Assay type: in vivo, human
Description: Blood samples (plasma) for ELISA analysis were obtained from Bristol-Myers Squibb Co. sponsored clinical study CA182-002, which is a phase I dose escalation study to determine the safety, pharmacokinetic, and pharmacodynamics of the example VEGFR-2 inhibitor in patients with advanced or metastatic solid tumors. Blood samples were drawn from patients at screening, pre-dose, and post-dose at 4 hours, Day 1, Day 8, Day 26, and end of treatment. Approximately 60 ml of blood was collected for the protocol specific sampling. Detailed instructions regarding the collection, processing, labeling, handling, storage, and shipment of the specimens were provided in the CA182-002 Laboratory Manual.
An ELISA method for the detection and measurement of Collagen Type IV and VE-Cadherin on human plasma or any biological sample where the proteins must be detected and measured is described. For collagen type IV ELISA, the kit was provided by Kamiya biomedical company (cat no. KT-035) and the principle method of the assay, a solid phase one-step sandwich ELISA, was as follows. Collagen Type IV in the sample was bound simultaneously by a solid phase monoclonal antibody and a monoclonal antibody-enzyme conjugate, each directed at a different antigenic site. […] After removing unbound enzyme-labeled antibody and samples, the plate was incubated with the enzyme substrate 3,3′,5,5′-tetramethylhylbenzidine (TMB). The resultant color development was directly proportional to the amount of collagen IV in the sample. The reaction was terminated by addition of acid and absorbance was measured at 450 nm. A standard curve was prepared from collagen type IV standard dilutions and collagen type IV samples concentration determined. For VE-Cadherin ELISA, the kit provided by Bender Medsystems (cat no. BMS253) was used and the principle method of the assay was as follows. An anti-VE-cadherin coating antibody was adsorbed onto the microwells. VE-cadherin present in the sample bound to antibodies adsorbed to the microwells; a biotin conjugated anti-VE-cadherin antibody was added and bound to VE-cadherin captured by the first antibody. Following incubation, unbound biotin conjugated anti-VE-cadherin was removed during a wash step. Streptavidin-HRP was added and bound to the biotin conjugated anti-VE-cadherin. Following incubation, unbound streptavidin-HRP was removed during a wash step and substrate solution reactive with HRP was added to the wells. A colored product was formed in proportion to the amount of VE-cadherin present in the sample. The reaction was terminated by addition of acid and absorbance was measured at 450 nm. A standard curve was prepared from VE-cadherin standard dilutions and VE-cadherin samples concentration determined.
Based on the pre-clinical studies, the Collagen type IV ELISA kit was examined as a potential molecular assay to monitor response and validate its expression on specimens obtained from cancer patients who received the example VEGFR-2 inhibitor. Biological samples from twelve cancer patients treated with the example VEGFR-2 inhibitor in protocol CA182002, which is a single agent dose escalation study, three patients each at 180 mg/day, 320 mg/day, 600 mg/day and 800 mg/day, were examined. Collagen Type IV blood levels were determined by an ELISA based assay for each patient at Day 0 (before therapy) and at Day 26 (after treatment). Collagen type IV levels increased on average by 24% at Day 26 in the 180 mg/day cohort; it increased on average only by 7% at Day 26 in the 320 mg/day cohort. In the 600 mg/day cohort, it was reduced on average by 26% at Day 26. In the 800 mg/day cohort, it was reduced only marginally, when compared to the 600 mg/day cohort, by 29% at Day 26.
Collagen type IV ELISA assays were also examined to see if collagen type IV was useful as a biomarker for clinical response to the example VEGFR-2 inhibitor. […] The reduction in collagen type IV blood levels correlated with clinical evidence of anti-tumor activity. […]

Cc1cc2c(F)c(Oc3ncnn4cc(OC[C@@H](C)OC(=O)[C@H](C)N)c(C)c34)ccc2[nH]1 [example VEGFR-2 inhibitor, [(1R),2S]-2-Aminopropionic acid 2-[4-(4-fluoro-2-methyl-1H-indol-5-yloxy)-5-methylpyrrolo[2,1-f][1,2,4]triazin-6-yloxy]-1-methylethyl ester]
Collagen type IV levels increased on average by (180 mg/day cohort, three patients, Day 26 vs Day 0): 24% | Collagen type IV levels increased on average by (320 mg/day cohort, three patients, Day 26 vs Day 0): 7% | Collagen type IV levels reduced on average by (600 mg/day cohort, three patients, Day 26 vs Day 0): 26% | Collagen type IV levels reduced by (800 mg/day cohort, three patients, Day 26 vs Day 0): 29% | reduction in collagen type IV levels (another patient, 600 mg/day, between Day 0 and Day 26, P=0.632): no significant reduction | collagen type IV blood levels reduced (one patient with ampulla of vater carcinoma, 600 mg/day, between Day 0 and Day 26, P=0.006): > 50%

Reference: US8067189B2, “Methods for determining sensitivity to vascular endothelial growth factor receptor-2 modulators by measuring the level of collagen type IV” (Bristol-Myers Squibb Company, priority 2005, dated 2011)
